Each structure is given as a SMILES string.

In the test the target is T1, human TGR5 bile acid receptor (Homo sapiens, UniProt Q8TDU6).
T1 construct: The full length TGR5 gene is inserted into pCMV6 vector DNA (Origene); expressed in transfected cells
T1 sequence (Q8TDU6 1-330): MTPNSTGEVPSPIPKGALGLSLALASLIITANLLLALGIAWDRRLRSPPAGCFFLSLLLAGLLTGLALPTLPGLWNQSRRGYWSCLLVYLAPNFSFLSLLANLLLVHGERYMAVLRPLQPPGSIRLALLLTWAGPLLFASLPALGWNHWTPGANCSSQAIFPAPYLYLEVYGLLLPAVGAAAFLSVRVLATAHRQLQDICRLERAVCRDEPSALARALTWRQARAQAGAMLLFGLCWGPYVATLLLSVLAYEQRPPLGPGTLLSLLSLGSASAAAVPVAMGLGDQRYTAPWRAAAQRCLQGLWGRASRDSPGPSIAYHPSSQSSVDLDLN
The experiment in a line: TGR5 receptor activation, HTRF cAMP assay in 293/humanTGR5 cells. The class given is cell-based. Particulars: activation of 293/humanTGR5 (HEK 293) cells measured by cAMP levels, 30 minutes at 37° C., relative to vehicle and 50 μM of Compound 7. The method, then: Transformed E. coli stocks containing cDNA for the full length human TGR5 bile acid receptor (IMAGE clone #5221127) are obtained from Open Biosystems. Cultures are grown in LB broth, and cDNA is purified using Qiagen mini-prep columns. The full length TGR5 gene is inserted into pCMV6 vector DNA (Origene) by ligation followed by transformation in competent E. coli. Ampicillin-resistant clones are isolated and vector DNA containing the TGR5 gene is verified by DNA sequence analysis (Sequetech). The resulting plasmid is transfected into HEK 293 cells using FuGene 6 transfection reagent and the transfected cells are grown in the presence of 1 mg/mL G418 selection antibiotic. A number of individual G418 resistant colonies are isolated by using 150 μL cloning cylinders. The resulting 293/humanTGR5 expressing cell lines are then screened for responsiveness to the natural ligand lithocholic acid. A single clone is chosen for expansion and use for screening, this clone reproducibly responds to known receptor agonists for over 30 passages. The 293/humanTGR5 cells are maintained in DMEM/F12 media supplemented with 10% fetal bovine serum (Hyclone) and 15 mM HEPES buffer (Invitrogen). Cells are passaged twice weekly and maintained at densities to assure logarithmic growth. For use in cAMP assays, cells are trypsinzied, centrifuged, and resuspended in DMEM/F12 media supplemented with 0.5% FBA and 15 mM HEPES buffer. These cells are adjusted to a density which allows distribution of 25,000 cells in 20 μL of volume to each well of a half-area 96-well plate (Greiner Bio-One). 20 μL of test compounds diluted to a 2× concentration in DMEM/F12 media with 0.5% FBS are then added to the 96-well plates, and the plates are then incubated for 30 minutes at 37° C. in a 5% CO2 atmosphere. Levels of resulting cAMP for each treatment condition are then determined by use of an HTRF cAMP assay (CisBio) following the manufactures directions. The resulting data is analyzed using IDBX XLfit software and IC50 determinations are made for each test compound by comparing cAMP levels to vehicle controls (unstimulated) and TGR5 agonist-activated cells (50 μM of Compound 7, a reported TGR5 receptor agonist, J. Med. Chem., 2009, 52 (24), pp 7962-7965). Specificity for human TGR5 agonist activity is confirmed for compounds of interest by testing them against cell lines over expressing the mouse TGR5 receptor, human GPR119 receptor, and parent cell lines followed by measurement of resulting cAMP levels. Assay responsiveness is controlled for by measuring cAMP levels induced by 50 μM Forskolin in cells, a known adenylyl […] activator.
Background: In TR-FRET formats the signal depends on donor and acceptor labels being close together.

As usually defined, the EC50 is the concentration at which the effect is half-maximal. In turn, `Fc1cccc(Cl)c1CSc1nnc2scc(-c3ccccc3)n12` [Example 19] returned an EC50 of 5 to 50 µM.

For the origin of these results see US20130085157A1, “ARYLSUBSTITUTED THIAZOLOTRIAZOLES AND THIAZOLOIMIDAZOLES” (priority 2011, published 2013).
